Data as given in PubChem BioAssay AID2060350 (Molecular Pharmacology Branch, DTP, NCI, 2025).

System: PDC 521955-158-R6-J3 spheroids, viability
Experiment: Anticancer human tumor 521955-158-R6-J3-PDC patient-derived pancreatic carcinoma cell line growth inhibition [TAK]
Conditions: spheroids with HUVEC and MSC; for IC50: curve of first compound; for viability, T/C: stronger effect = lower value
Source text: Combinatorial screen of targeted agents with TAK-243 and ipatasertib in multi-cell type tumor spheroids
A high-throughput screen of multi-cell type tumor spheroids was designed to identify active combinations of targeted small molecules and TAK-243 or ipatasertib. Complex spheroids include a stromal component modeled by human endothelial cells (HUVEC) and fibroblasts modeled by human mesenchymal stem cells (MSCs). The concentration ranges selected for each drug and investigational agent were based upon clinically achievable concentrations if the clinical Cmax of the agent was known.
Compounds. The drugs and investigational agents: TAK-243 (785004), ipatasertib (767898), everolimus (733504), selumetinib (741078), bortezomib (756655), trametinib (758246), ixazomib (758254), vemurafenib (761431), dabrafenib (764134), sapanisertib (764658), alpelisib (765974), and copanlisib (816437), were obtained from the National Cancer Institute (NCI) Developmental Therapeutics Program Chemical Repository. The FDA-approved anticancer drug set is available from the NCI Developmental Therapeutics Program. […] The stock solutions were prepared in dimethyl sulfoxide (DMSO, Sigma-Aldrich, St. Louis, MO, cat. D2650) at 800-fold the tested concentration and stored at -70 degrees C prior to their use. All drugs and investigational agents were tested over a range starting from a high concentration at or near the clinical Cmax and decreasing in half-log increments. If the clinical Cmax for an agent had not been determined, the highest concentration tested was 10 microM.
NCI60 Cell Culture. NCI60 cell lines were obtained from the NCI Developmental Therapeutics Program Tumor Repository. For each lot of cells, the Repository performed Applied Biosystems AmpFLSTR Identifiler testing with PCR amplification to confirm consistency with the published Identifier STR profile for each cell line. Cells were kept in continuous culture for no more than 20 passages. The optimal seeding densities for each of the cell lines at each time point assessed were determined prior to performing the concentration response studies. Briefly, the NCI60 human tumor lines were grown as monolayers in RPMI 1640 medium supplemented with 10% FBS and 2 mmol/L L-glutamine.
An additional 2 lines were from the NCI60 cell line panel including melanomas, MALME-3M and SK-MEL-2. Pooled donor human umbilical vein endothelial cells (HUVEC, Lonza, cat. CC-2519) and human mesenchymal stem cells (hMSC, Lonza, cat. PT-2501) were purchased from Lonza (Walkersville, MD).
PDMR cell lines were grown in complete medium (DC medium): Dulbecco's modified Eagle's medium (DMEM)/F12 supplemented with 5% fetal bovine serum (FBS), 2 mM L-glutamine, 100 U/mL penicillin and 100 µg/ml streptomycin, 0.4 µg/ml hydrocortisone, 10 ng/ml epidermal growth factor (EGF) recombinant human protein, 24 µg/mL adenine, and 0.1 mg/mL primocin. During culture from frozen stock vials, PDMR cells were cultured in the same medium containing 10 µM Y-27632 (see Table 3). The PDCs were cultured in complete DMEM/F12 media without 10 microM Y-27632 dihydrochloride for at least two passages prior to the screen. The pooled donor HUVEC and hMSC were cultured in endothelial cell growth medium 2 (PromoCell, Heidelberg, Germany, cat. C-22011) and mesenchymal stem cell growth medium 2 (PromoCell, cat. C-28009), respectively. For all experiments, HUVEC and hMSC were used at passages </=5.
For the pre-screen, cell seeding densities were determined from a titration spanning the range from 5,000 to 313 cells per well. The mct-spheroids including 60% malignant cells, 25% HUVEC and 15% MSC dispensed as a mixture into U-bottom Ultra-Low Attachment 384-well plates (Corning, NY)
High-throughput Drug Combination Screening.
Prior to their inoculation into 384-well plates, malignant cells, HUVEC, and hMSC were removed from T flasks using TrypLE express (Thermo Fisher Scientific, cat. 12605036) and harvested by centrifugation for 5 min at 233 x g. […]
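Note: spheroids exposed to drugs for 7 days before readout.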
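Throughout, for viability, T/C: 100% = DMSO vehicle control viability.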

SMILES: CC(=O)Nc1cccc(-n2c(=O)n(C3CC3)c(=O)c3c(Nc4ccc(I)cc4F)n(C)c(=O)c(C)c32)c1 + CC(C)NCC(C(=O)N1CCN(c2ncnc3c2C(C)CC3O)CC1)c1ccc(Cl)cc1
- IC50 (second compound 0.3 µM): 7.12 nM
- IC50 (second compound 0.949 µM): 2.58 nM
- IC50 (second compound 3 µM): 1.82 nM
- IC50 (second compound 9.49 µM): 2.3 nM
- IC50 (second compound 30 µM): 1.64 nM
- viability, T/C (second compound 0.3 µM, first compound 94.9 pM): 79.6%
- viability, T/C (second compound 0.3 µM, first compound 0.0003 µM): 75.7%
- viability, T/C (second compound 0.3 µM, first compound 0.000949 µM): 67.9%
- viability, T/C (second compound 0.3 µM, first compound 0.003 µM): 58.8%
- viability, T/C (second compound 0.3 µM, first compound 0.00949 µM): 46.8%
- viability, T/C (second compound 0.3 µM, first compound 0.03 µM): 35.6%
- viability, T/C (second compound 0.949 µM, first compound 94.9 pM): 85.6%
- viability, T/C (second compound 0.949 µM, first compound 0.0003 µM): 73.7%
- viability, T/C (second compound 0.949 µM, first compound 0.000949 µM): 58.5%
- viability, T/C (second compound 0.949 µM, first compound 0.003 µM): 49%
- viability, T/C (second compound 0.949 µM, first compound 0.00949 µM): 38.3%
- viability, T/C (second compound 0.949 µM, first compound 0.03 µM): 25.2%
- viability, T/C (second compound 3 µM, first compound 94.9 pM): 78.9%
- viability, T/C (second compound 3 µM, first compound 0.0003 µM): 62.1%
- viability, T/C (second compound 3 µM, first compound 0.000949 µM): 54.4%
- viability, T/C (second compound 3 µM, first compound 0.003 µM): 49%
- viability, T/C (second compound 3 µM, first compound 0.00949 µM): 37.6%
- viability, T/C (second compound 3 µM, first compound 0.03 µM): 22.2%
- viability, T/C (second compound 9.49 µM, first compound 94.9 pM): 77.9%
- viability, T/C (second compound 9.49 µM, first compound 0.0003 µM): 62.8%
- viability, T/C (second compound 9.49 µM, first compound 0.000949 µM): 53.1%
- viability, T/C (second compound 9.49 µM, first compound 0.003 µM): 53.4%
- viability, T/C (second compound 9.49 µM, first compound 0.00949 µM): 37.4%
- viability, T/C (second compound 9.49 µM, first compound 0.03 µM): 15.2%
- viability, T/C (second compound 30 µM, first compound 94.9 pM): 71.9%
- viability, T/C (second compound 30 µM, first compound 0.0003 µM): 59.6%
- viability, T/C (second compound 30 µM, first compound 0.000949 µM): 55.8%
- viability, T/C (second compound 30 µM, first compound 0.003 µM): 47.8%
- viability, T/C (second compound 30 µM, first compound 0.00949 µM): 28.5%
- viability, T/C (second compound 30 µM, first compound 0.03 µM): 16.1%
